Results published in paper PMC4104591 (Structure (London, England : 1993), 2013).

Molecular target: mutant-MDM2-p53 complex (Homo sapiens, UniProt Q00987, E23G/S22P)
Test: Competitive AIDA-NMR antagonist-induced dissociation assay
Format: binding
Details: compared with the WT-MDM2-p53 complex

mutant-MDM2-p53 complex, sequence (Q00987 1-125 S22P/E23G, one chain of several): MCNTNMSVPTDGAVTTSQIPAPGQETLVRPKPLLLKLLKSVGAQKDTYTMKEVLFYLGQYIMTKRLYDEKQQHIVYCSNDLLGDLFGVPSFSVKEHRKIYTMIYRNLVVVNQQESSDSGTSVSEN

effectiveness in dissociating the mutant-MDM2-p53 complex: less effective
Compound: COc1ccc(C2=N[C@@H](c3ccc(Cl)cc3)[C@@H](c3ccc(Cl)cc3)N2C(=O)N2CCNC(=O)C2)c(OC(C)C)c1 [nutlin-3]
